Literature values as cited in patent US8119691B2, “Method for treating airway hyper-responsiveness with lipoxin analogs” (National Institutes of Health (NIH), priority 2001, dated 2012).

Tests used:
[1] = target: T1, recombinant cysLT1 receptors (Homo sapiens, UniProt Q9Y271); conditions: CHO cells, in vitro (ref. 12); cited from earlier work
T1 construct: host or cells: Chinese hamster ovary cells (recombinant expression)
T1 sequence (Q9Y271 1-337): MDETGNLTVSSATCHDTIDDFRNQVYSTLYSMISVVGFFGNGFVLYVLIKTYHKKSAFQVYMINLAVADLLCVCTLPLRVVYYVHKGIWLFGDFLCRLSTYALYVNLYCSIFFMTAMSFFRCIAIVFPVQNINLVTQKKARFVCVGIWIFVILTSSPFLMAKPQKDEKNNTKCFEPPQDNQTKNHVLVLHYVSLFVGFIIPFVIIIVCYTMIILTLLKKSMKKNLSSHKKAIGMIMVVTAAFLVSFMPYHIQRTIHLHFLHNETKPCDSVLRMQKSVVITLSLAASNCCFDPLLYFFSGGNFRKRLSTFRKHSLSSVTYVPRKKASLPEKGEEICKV

[2] = system: human asthmatics; conditions: native LXA4 given to human asthmatics (ref. 22); cited from earlier work
[3] = system: airway smooth muscle; conditions: in vitro (ref. 23); cited from earlier work
[4] = system: eosinophil; conditions: cited from earlier work

CCCCC[C@H](O)/C=C/C=C\C=C\C=C\[C@@H](O)[C@@H](O)CCCC(=O)O [LXA4, Lipoxin A4]
competition for binding at LTD4 recognition sites and recombinant cysLT1 receptors [1]: compete for binding with high affinity at LTD4 recognition sites
LTC4-stimulated airway hyper-responsiveness [2]: inhibits LTC4-stimulated airway hyper-responsiveness
LTD4-initiated constriction of airway smooth muscle [3]: blocks LTD4-initiated constriction of airway smooth muscle in vitro
eosinophil chemotaxis [4]: directly inhibits eosinophil chemotaxis
